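Step 1: Grow cells in 96-well plates. Step 2: Expose to compound for 48 hours at 5 concentrations. Step 3: Interpolate endpoints linearly; if unreached, use highest concentration. GI50 is the concentration that inhibits growth by half.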 The source made the active and inactive calls. No stated cut-off is given here; in the data, active = GI50 up to about 1.1 µM and inactive = higher.
Experiments:
Experiment in all cases: growth of human tumour cells (NCI), 48 h
[1] = test system: 786-0
[2] = test system: A498
[3] = test system: A549
[4] = test system: ACHN
[5] = test system: BT-549
[6] = test system: CAKI-1
[7] = test system: COLO 205
[8] = test system: DU-145
[9] = test system: EKVX
[10] = test system: HCC 2998
[11] = test system: HCT-116
[12] = test system: HCT-15
[13] = test system: HOP-62
[14] = test system: HOP-92
[15] = test system: HT-29
[16] = test system: Hs-578T
[17] = test system: IGROV-1
[18] = test system: K562
[19] = test system: KM12
[20] = test system: M14
[21] = test system: MCF7
[22] = test system: MDA-MB-231
[23] = test system: MDA-MB-435
[24] = test system: MDA-N
[25] = test system: MOLT-4
[26] = test system: Malme-3M
[27] = test system: NCI-H23
[28] = test system: NCI-H460
[29] = test system: NCI-H522
[30] = test system: NCI/ADR-RES
[31] = test system: OVCAR-3
[32] = test system: OVCAR-4
[33] = test system: OVCAR-5
[34] = test system: OVCAR-8
[35] = test system: PC-3
[36] = test system: RPMI-8226
[37] = test system: RXF 393
[38] = test system: SF-268
[39] = test system: SF-295
[40] = test system: SK-MEL-28
[41] = test system: SK-MEL-2
[42] = test system: SK-MEL-5
[43] = test system: SK-OV-3
[44] = test system: SNB-19
[45] = test system: SNB-75
[46] = test system: TK-10
[47] = test system: U-251
[48] = test system: UACC-257
[49] = test system: UACC-62
[50] = test system: UO-31
[51] = test system: CCRF-CEM
[52] = test system: HL-60
[53] = test system: LOX IMVI
[54] = test system: NCI-H226
[55] = test system: SF-539
[56] = test system: SR
[57] = test system: SW-620
[58] = test system: T47D

In the case of `CCOP(=O)(Nc1ccc(-c2ccccc2)cc1)OCC`, the GI50 [1] is reported as > 100 µM (inactive), the GI50 [2] is reported as > 100 µM (inactive) and the GI50 [3] is reported as 81.5 µM (inactive). The GI50 [4] was > 100 µM (inactive), the GI50 [5] was > 100 µM (inactive) and the GI50 [6] was > 100 µM (inactive). The GI50 [7] was > 100 µM (inactive), the GI50 [8] was > 100 µM (inactive) and the GI50 [9] was 65 µM (inactive). For the same compound, the GI50 [10] was > 100 µM (inactive), the GI50 [11] was > 100 µM (inactive) and the GI50 [12] was over 100 µM. For the same compound, the GI50 [13] was > 100 µM (inactive), the GI50 [14] was 24.8 µM (inactive) and the GI50 [15] was 75.7 µM (inactive). The GI50 [16] was > 100 µM (inactive), the GI50 [17] was 71.3 µM (inactive) and the GI50 [18] was 74.1 µM (inactive). The GI50 [19] was > 100 µM (inactive), the GI50 [20] was > 100 µM (inactive) and the GI50 [21] was > 100 µM (inactive). The GI50 [22] was > 100 µM (inactive), the GI50 [23] was 91.6 µM (inactive) and the GI50 [24] was 88.9 µM (inactive). The GI50 [25] was 36.4 µM (inactive), the GI50 [26] was > 100 µM (inactive) and the GI50 [27] was > 100 µM (inactive). The GI50 [28] was > 100 µM (inactive), the GI50 [29] was 33.8 µM (inactive) and the GI50 [30] was > 100 µM (inactive). For the same compound, the GI50 [31] was 49.9 µM (inactive), the GI50 [32] was 96.4 µM (inactive) and the GI50 [33] was 77.8 µM (inactive). The GI50 [34] was > 100 µM (inactive), the GI50 [35] was 86.5 µM (inactive) and the GI50 [36] was 43.3 µM (inactive). The GI50 [37] was 34.6 µM (inactive), the GI50 [38] was 74.6 µM (inactive) and the GI50 [39] was > 100 µM (inactive). The GI50 [40] was > 100 µM (inactive), the GI50 [41] was > 100 µM (inactive) and the GI50 [42] was 90.2 µM (inactive). The GI50 [43] was > 100 µM (inactive), the GI50 [44] was > 100 µM (inactive) and the GI50 [45] was 74.3 µM (inactive). The GI50 [46] was > 100 µM (inactive), the GI50 [47] was > 100 µM (inactive) and the GI50 [48] was > 100 µM (inactive). For the same compound, the GI50 [49] was > 100 µM (inactive) and the GI50 [50] was 57.9 µM (inactive).
In the case of `CCCCC/C(C=O)=C\c1ccccc1`, the GI50 [1] is reported as > 100 µM (inactive), the GI50 [2] is reported as > 100 µM (inactive) and the GI50 [4] is reported as > 100 µM (inactive). The GI50 [5] was > 100 µM (inactive), the GI50 [6] was > 100 µM (inactive) and the GI50 [51] was 80.4 µM (inactive). For the same compound, the GI50 [7] was > 100 µM (inactive), the GI50 [8] was > 100 µM (inactive) and the GI50 [9] was > 100 µM (inactive). The GI50 [10] was > 100 µM (inactive), the GI50 [11] was > 100 µM (inactive) and the GI50 [12] was over 100 µM. For the same compound, the GI50 [52] was > 100 µM (inactive), the GI50 [13] was > 100 µM (inactive) and the GI50 [14] was > 100 µM (inactive). The GI50 [15] was > 100 µM (inactive), the GI50 [16] was > 100 µM (inactive) and the GI50 [17] was > 100 µM (inactive). The GI50 [18] was 20.3 µM (inactive), the GI50 [19] was > 100 µM (inactive) and the GI50 [53] was > 100 µM (inactive). For the same compound, the GI50 [20] was > 100 µM (inactive), the GI50 [21] was > 100 µM (inactive) and the GI50 [22] was > 100 µM (inactive). For the same compound, the GI50 [23] was > 100 µM (inactive), the GI50 [25] was 65.8 µM (inactive) and the GI50 [54] was > 100 µM (inactive). For the same compound, the GI50 [27] was > 100 µM (inactive), the GI50 [28] was > 100 µM (inactive) and the GI50 [30] was > 100 µM (inactive). For the same compound, the GI50 [32] was > 100 µM (inactive), the GI50 [34] was > 100 µM (inactive) and the GI50 [35] was > 100 µM (inactive). For the same compound, the GI50 [36] was > 100 µM (inactive), the GI50 [37] was > 100 µM (inactive) and the GI50 [38] was > 100 µM (inactive). The GI50 [39] was > 100 µM (inactive), the GI50 [55] was > 100 µM (inactive) and the GI50 [40] was > 100 µM (inactive). The GI50 [41] was > 100 µM (inactive), the GI50 [42] was > 100 µM (inactive) and the GI50 [43] was > 100 µM (inactive). The GI50 [44] was > 100 µM (inactive), the GI50 [45] was > 100 µM (inactive) and the GI50 [56] was > 100 µM (inactive). The GI50 [57] was > 100 µM (inactive), the GI50 [58] was > 100 µM (inactive) and the GI50 [46] was > 100 µM (inactive). For the same compound, the GI50 [47] was > 100 µM (inactive), the GI50 [48] was > 100 µM (inactive) and the GI50 [49] was > 100 µM (inactive). For the same compound, the GI50 [50] was > 100 µM (inactive).

From ChEMBL document CHEMBL1201862, “PubChem BioAssay data set” (2004)
